Source: US11230538B2, “Herbicides” (SYNGENTA PARTICIPATIONS AG, priority 2016, dated 2022)

Columns and labels:
Type in all cases: in vivo
[1] = tested on: Echinochloa crus-galli (ECHCG); assay: B2 Post-emergence herbicidal activity; details: post-emergence application, rate 1000 g/ha, evaluated after 13 days
Description: (§1) Seeds of a variety of test species were sown in standard soil in pots: Triticum aestivium (TRZAW), Avena fatua (AVEFA), Alopecurus myosuroides (ALOMY), Echinochloa crus-galli (ECHCG), Lolium perenne (LOLPE), Zea Mays (ZEAMX), Abutilon theophrasti (ABUTH), Amaranthus retroflexus (AMARE) and Setaria fabenri (SETFA). After 8 days cultivation (post-emergence) under controlled conditions in a glasshouse (at 24/16° C., day/night; 14 hours light; 65% humidity), the plants were sprayed with an aqueous spray solution derived from the formulation of the technical active ingredient in acetone I water (50:50) solution containing 0.5% Tween 20 (polyoxyethelyene sorbitan monolaurate, CAS RN 9005-64-5). The test plants were then grown in a glasshouse under controlled conditions (at 24/16° C., day/night; 14 hours light; 65% humidity) and watered twice daily. After 13 days, the test was evaluated (5=total damage to plant; 0=no damage to plant).

[2] = tested on: Echinochloa crus-galli (ECHCG); assay: B1 Pre-emergence herbicidal activity; parameters: key to Pre-emergence herbicidal activity, ECHCG (damage score 0-5): 5=total damage to plant; 0=no damage to plant; details: pre-emergence application, rate 1000 g/ha, evaluated after 13 days
Description: as §1, with “fabenr” for “fabenri”, “After” for “After 8 days”, “for one day (pre-emergence)” for “(post-emergence)”

[3] = tested on: Setaria fabenr (SETFA); assay: B1 Pre-emergence herbicidal activity; parameters: key to Pre-emergence herbicidal activity, SETFA (damage score 0-5): 5=total damage to plant; 0=no damage to plant; details: pre-emergence application, rate 1000 g/ha, evaluated after 13 days
Description: as §1, with “fabenr” for “fabenri”, “After” for “After 8 days”, “for one day (pre-emergence)” for “(post-emergence)”

[4] = tested on: Lolium perenne (LOLPE); assay: B1 Pre-emergence herbicidal activity; parameters: key to Pre-emergence herbicidal activity, LOLPE (damage score 0-5): 5=total damage to plant; 0=no damage to plant; details: pre-emergence application, rate 1000 g/ha, evaluated after 13 days
Description: as §1, with “fabenr” for “fabenri”, “After” for “After 8 days”, “for one day (pre-emergence)” for “(post-emergence)”

[5] = tested on: Avena fatua (AVEFA); assay: B1 Pre-emergence herbicidal activity; parameters: key: 5=total damage to plant; 0=no damage to plant; details: pre-emergence application, rate 1000 g/ha, evaluated after 13 days
Description: as §1, with “fabenr” for “fabenri”, “After” for “After 8 days”, “for one day (pre-emergence)” for “(post-emergence)”

[6] = tested on: Triticum aestivium (TRZAW); assay: B1 Pre-emergence herbicidal activity; parameters: key: 5=total damage to plant; 0=no damage to plant; details: pre-emergence application, rate 1000 g/ha, evaluated after 13 days
Description: as §1, with “fabenr” for “fabenri”, “After” for “After 8 days”, “for one day (pre-emergence)” for “(post-emergence)”

[7] = tested on: Alopecurus myosuroides (ALOMY); assay: B1 Pre-emergence herbicidal activity; parameters: key: 5=total damage to plant; 0=no damage to plant; details: pre-emergence application, rate 1000 g/ha, evaluated after 13 days
Description: as §1, with “fabenr” for “fabenri”, “After” for “After 8 days”, “for one day (pre-emergence)” for “(post-emergence)”

[8] = tested on: Setaria fabenri (SETFA); assay: B2 Post-emergence herbicidal activity; parameters: key: 5=total damage to plant; 0=no damage to plant; details: post-emergence application, rate 1000 g/ha, evaluated after 13 days
Description: as §1

[9] = tested on: Triticum aestivium (TRZAW); assay: B2 Post-emergence herbicidal activity; parameters: key: 5=total damage to plant; 0=no damage to plant; details: post-emergence application, rate 1000 g/ha, evaluated after 13 days
Description: as §1

[10] = tested on: Alopecurus myosuroides (ALOMY); assay: B2 Post-emergence herbicidal activity; parameters: key: 5=total damage to plant; 0=no damage to plant; details: post-emergence application, rate 1000 g/ha, evaluated after 13 days
Description: as §1

CC(C)CN(C(=O)C(C)C)c1ccc(-c2cncc(F)c2)nc1C(F)(F)F [Compound C86]
Post-emergence herbicidal activity, ECHCG (damage score 0-5) [1]: 1 | Pre-emergence herbicidal activity, ECHCG (damage score 0-5) [2]: 0 | Pre-emergence herbicidal activity, SETFA (damage score 0-5) [3]: 1 | Pre-emergence herbicidal activity, LOLPE (damage score 0-5) [4]: 0 | Pre-emergence herbicidal activity, AVEFA (damage score 0-5) [5]: 0 | Pre-emergence herbicidal activity, TRAZW (damage score 0-5) [6]: 0 | Pre-emergence herbicidal activity, ALOMY (damage score 0-5) [7]: 0 | Post-emergence herbicidal activity, SETFA (damage score 0-5) [8]: 1 | Post-emergence herbicidal activity, TRAZW (damage score 0-5) [9]: 0 | Post-emergence herbicidal activity, ALOMY (damage score 0-5) [10]: 0

CC(C)C(=O)N(CC1CC1)c1ccc(-c2cncc(F)c2)nc1C(F)(F)F [Compound C87]
Post-emergence herbicidal activity, ECHCG (damage score 0-5) [1]: 3 | Pre-emergence herbicidal activity, ECHCG (damage score 0-5) [2]: 2 | Pre-emergence herbicidal activity, SETFA (damage score 0-5) [3]: 5 | Pre-emergence herbicidal activity, LOLPE (damage score 0-5) [4]: 0 | Pre-emergence herbicidal activity, AVEFA (damage score 0-5) [5]: 0 | Pre-emergence herbicidal activity, TRAZW (damage score 0-5) [6]: 0 | Pre-emergence herbicidal activity, ALOMY (damage score 0-5) [7]: 0 | Post-emergence herbicidal activity, SETFA (damage score 0-5) [8]: 4 | Post-emergence herbicidal activity, TRAZW (damage score 0-5) [9]: 0 | Post-emergence herbicidal activity, ALOMY (damage score 0-5) [10]: 0

CC(C)C(=O)N(COCC(C)(C)C)c1ccc(-c2cncc(F)c2)nc1C(F)(F)F [Compound C89]
Post-emergence herbicidal activity, ECHCG (damage score 0-5) [1]: 4 | Pre-emergence herbicidal activity, ECHCG (damage score 0-5) [2]: 3 | Pre-emergence herbicidal activity, SETFA (damage score 0-5) [3]: 4 | Pre-emergence herbicidal activity, LOLPE (damage score 0-5) [4]: 0 | Pre-emergence herbicidal activity, AVEFA (damage score 0-5) [5]: 1 | Pre-emergence herbicidal activity, TRAZW (damage score 0-5) [6]: 0 | Pre-emergence herbicidal activity, ALOMY (damage score 0-5) [7]: 0 | Post-emergence herbicidal activity, SETFA (damage score 0-5) [8]: 4 | Post-emergence herbicidal activity, TRAZW (damage score 0-5) [9]: 0 | Post-emergence herbicidal activity, ALOMY (damage score 0-5) [10]: 0

CCC(=O)N(CCOC)c1ccc(-c2cncc(F)c2)nc1C(F)(F)F [Compound C96]
Post-emergence herbicidal activity, ECHCG (damage score 0-5) [1]: 3 | Pre-emergence herbicidal activity, ECHCG (damage score 0-5) [2]: 3 | Pre-emergence herbicidal activity, SETFA (damage score 0-5) [3]: 5 | Pre-emergence herbicidal activity, LOLPE (damage score 0-5) [4]: 0 | Pre-emergence herbicidal activity, AVEFA (damage score 0-5) [5]: 1 | Pre-emergence herbicidal activity, TRAZW (damage score 0-5) [6]: 0 | Pre-emergence herbicidal activity, ALOMY (damage score 0-5) [7]: 1 | Post-emergence herbicidal activity, SETFA (damage score 0-5) [8]: 4 | Post-emergence herbicidal activity, TRAZW (damage score 0-5) [9]: 0 | Post-emergence herbicidal activity, ALOMY (damage score 0-5) [10]: 0

CCC(=O)N(CC(C)C)c1ccc(-c2cncc(F)c2)nc1C(F)(F)F [Compound C97]
Post-emergence herbicidal activity, ECHCG (damage score 0-5) [1]: 2 | Pre-emergence herbicidal activity, ECHCG (damage score 0-5) [2]: 1 | Pre-emergence herbicidal activity, SETFA (damage score 0-5) [3]: 3 | Pre-emergence herbicidal activity, LOLPE (damage score 0-5) [4]: 0 | Pre-emergence herbicidal activity, AVEFA (damage score 0-5) [5]: 0 | Pre-emergence herbicidal activity, TRAZW (damage score 0-5) [6]: 0 | Pre-emergence herbicidal activity, ALOMY (damage score 0-5) [7]: 0 | Post-emergence herbicidal activity, SETFA (damage score 0-5) [8]: 3 | Post-emergence herbicidal activity, TRAZW (damage score 0-5) [9]: 0 | Post-emergence herbicidal activity, ALOMY (damage score 0-5) [10]: 0

CCC(=O)N(CCSC)c1ccc(-c2cncc(F)c2)nc1C(F)(F)F [Compound C98]
Post-emergence herbicidal activity, ECHCG (damage score 0-5) [1]: 1 | Pre-emergence herbicidal activity, ECHCG (damage score 0-5) [2]: 1 | Pre-emergence herbicidal activity, SETFA (damage score 0-5) [3]: 3 | Pre-emergence herbicidal activity, LOLPE (damage score 0-5) [4]: 1 | Pre-emergence herbicidal activity, AVEFA (damage score 0-5) [5]: 0 | Pre-emergence herbicidal activity, TRAZW (damage score 0-5) [6]: 0 | Pre-emergence herbicidal activity, ALOMY (damage score 0-5) [7]: 0 | Post-emergence herbicidal activity, SETFA (damage score 0-5) [8]: 0 | Post-emergence herbicidal activity, TRAZW (damage score 0-5) [9]: 0 | Post-emergence herbicidal activity, ALOMY (damage score 0-5) [10]: 0
